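Interpolation was linear, between the two tested concentrations surrounding the appropriate level; five concentrations were tested over 48 hours in 96-well plates. At the GI50, growth is halved. At the TGI there is no net growth.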
How the values were obtained:
Experiment in all cases: DTP human tumour cell line panel, 48 h
[1] = system: UACC-62 melanoma
[2] = system: A498 renal
[3] = system: NCI-H23 lung
[4] = system: UACC-257 melanoma
[5] = system: SF-268 CNS
[6] = system: HL-60(TB) leukemia
[7] = system: NCI-H460 lung
[8] = system: SR leukemia
[9] = system: NCI-H522 lung
[10] = system: BT-549 breast

COC(=O)C(CCS(=O)(=O)CC(=O)C(=O)Nc1cccc(C(C)=O)c1)C(=O)OC
TGI [1]: > 100 µM
TGI [2]: > 100 µM
TGI [3]: > 100 µM
TGI [4]: > 100 µM
TGI [5]: > 100 µM
TGI [6]: > 100 µM
TGI [7]: > 92 µM
TGI [8]: 50 µM
TGI [9]: > 100 µM

C[C@@H]1C=C(CCCCCCCCCCC[C@H](O)[C@@H]2CCC(=O)O2)C(=O)O1
GI50 [1]: 21.2 µM
TGI [1]: 85.7 µM
GI50 [2]: 25.6 µM
TGI [2]: 68.7 µM
GI50 [3]: 24.2 µM
TGI [3]: 99.1 µM
GI50 [4]: 43.2 µM
TGI [4]: > 100 µM
GI50 [5]: 40.3 µM
TGI [5]: > 100 µM
GI50 [7]: 31.2 µM
TGI [7]: > 100 µM
GI50 [10]: 47.4 µM
TGI [10]: > 100 µM
GI50 [9]: 15.9 µM
TGI [9]: 49.2 µM

C/C(O)=C(\N=O)C(=O)NCCc1ccccc1
TGI [1]: > 100 µM
TGI [2]: > 100 µM
TGI [3]: > 100 µM
TGI [4]: > 100 µM
TGI [5]: > 100 µM
TGI [6]: > 100 µM
TGI [7]: > 58.4 µM
TGI [8]: > 100 µM
TGI [9]: > 100 µM

O=S(=O)([O-])c1cccc2cccc(N=Cc3ccccc3[O-])c12.O=S(=O)([O-])c1cccc2cccc(N=Cc3ccccc3[O-])c12.[O]=[U]=[O]
GI50 [1]: > 100 µM
TGI [1]: > 100 µM
GI50 [2]: > 100 µM
TGI [2]: > 100 µM
GI50 [3]: 51.5 µM
TGI [3]: > 100 µM
GI50 [4]: > 100 µM
TGI [4]: > 100 µM
GI50 [5]: > 100 µM
TGI [5]: > 100 µM
GI50 [7]: 55.6 µM
TGI [7]: > 100 µM
GI50 [9]: > 100 µM
TGI [9]: > 100 µM

Cc1cccc(C(C)(C)C)c1NC(=O)C(=O)C(C(=O)/C=C\c1ccccc1)C1OC(=O)c2ccccc21 (stereo unspecified)
TGI [1]: > 100 µM
TGI [2]: > 100 µM
TGI [3]: > 100 µM
TGI [4]: > 100 µM
TGI [5]: > 100 µM
TGI [6]: > 100 µM
TGI [7]: > 100 µM
TGI [8]: > 100 µM
TGI [9]: > 100 µM

CC(O)/C=C/C(CCC(C)CO)C(C)C (stereo unspecified)
TGI [1]: > 100 µM
TGI [2]: > 100 µM
TGI [3]: > 100 µM
TGI [4]: > 100 µM
TGI [5]: > 100 µM
TGI [6]: > 100 µM
TGI [7]: > 100 µM
TGI [9]: > 100 µM

CCCCCCCCCC(=O)CC(=O)c1ccc(O)cc1O
TGI [1]: 43 µM
TGI [3]: 59.8 µM
TGI [4]: 71.2 µM
TGI [5]: > 100 µM
TGI [6]: 53.9 µM
TGI [7]: > 100 µM
TGI [8]: 44.9 µM
TGI [9]: 48.2 µM

O=C1C=C[C@@]23CC1C(O)C[C@H]2C=Cc1ccccc13 (stereo partly specified)
TGI [1]: > 100 µM
TGI [2]: > 100 µM
TGI [4]: > 100 µM
TGI [5]: > 100 µM
TGI [6]: > 100 µM
TGI [7]: > 100 µM
TGI [9]: > 100 µM

CCOC(=O)CC(=O)Sc1ccccc1
TGI [1]: 30.7 µM
TGI [2]: 57.4 µM
TGI [3]: 70.7 µM
TGI [4]: 91.4 µM
TGI [5]: 23.1 µM
TGI [6]: 48.6 µM
TGI [7]: 73.8 µM
TGI [8]: 58.1 µM
TGI [9]: 24.3 µM

N#CC(C(=O)/C(=N/N)C(C#N)c1ccc(Cl)cc1)c1ccc(Cl)cc1 (stereo unspecified)
TGI [1]: > 100 µM
TGI [2]: > 100 µM
TGI [3]: > 100 µM
TGI [4]: > 100 µM
TGI [5]: > 100 µM
TGI [6]: > 100 µM
TGI [7]: > 100 µM
TGI [9]: > 100 µM

CC(=O)OC1C(=O)C(O)C(C)OC1O[C@@H]1C[C@@]2(C)[C@@H]3CC=C4[C@@H](C[C@H](O)C(=O)C4(C)C)[C@]3(C)C(=O)C[C@]2(C)[C@H]1[C@@](C)(O)C(=O)/C=C/C(C)(C)O (stereo partly specified)
TGI [1]: > 7.98 µM
TGI [2]: 1.04 µM
TGI [3]: > 10 µM
TGI [4]: 7.05 µM
TGI [5]: 4.01 µM
TGI [6]: 7.1 µM
TGI [7]: > 10 µM
TGI [8]: > 10 µM
TGI [9]: 6.12 µM

Source: PubChem BioAssay (NCI)
